Experimental data as given in US11279728B2, “Broad spectrum viral inhibitor” (Albert Einstein College of Medicine, priority 2017, dated 2022).
“Also recorded” adds a separate entry of the source.

T1: Rattus norvegicus (residues 51-361) viperin (Rvip) (Rattus norvegicus, UniProt O70600)
T1 sequence (O70600 51-360 limits assumed): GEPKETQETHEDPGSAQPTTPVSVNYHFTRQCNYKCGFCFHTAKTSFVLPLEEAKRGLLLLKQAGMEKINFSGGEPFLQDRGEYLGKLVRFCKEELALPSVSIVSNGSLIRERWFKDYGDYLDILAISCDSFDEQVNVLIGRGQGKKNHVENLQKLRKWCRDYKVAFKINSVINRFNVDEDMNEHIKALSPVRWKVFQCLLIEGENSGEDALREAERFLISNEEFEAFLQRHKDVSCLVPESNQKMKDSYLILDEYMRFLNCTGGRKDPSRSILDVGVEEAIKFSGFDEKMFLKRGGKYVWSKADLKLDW


Legend:
[1] = target: T1, Rattus norvegicus (residues 51-361) viperin (Rvip); experiment: In vitro characterization of viperin (Rvip) activity: 5′dA formation / ddhCTP production; conditions: 50 μM Rvip, 2 mM SAM, 1 mM nucleotide, 5 mM dithionite, 4 min
Dengue virus (DV) RdRp = Dengue virus (DV) RdRp (Dengue virus type 2, UniProt P29990); experiment: DV RdRp primed-template (primer extension) assay; format: biochemical; conditions: for incorporation by DV RdRp on addition to the extended primer: direct incorporation, primed-template assay; for inhibition of DV RdRp-catalyzed production of full-length RNA: in competition with natural ribonucleotides, increasing concentrations (1, 10, 100 and 300 μM); for chain termination of DV RdRp-catalyzed RNA synthesis: once incorporated, only a 16-nt product (n+1)
Source text: FIG. 6(A)-6(B): DV RdRp-catalyzed RNA synthesis is inhibited by ddhCTP by a chain termination mechanism. A. Schematic of primer extension assay for evaluating DV RdRp activity. Elongation complexes are first assembled with a trinucleotide primer, 5′-pGGC (SEQ ID NO:1), and 20-nt RNA template (SEQ ID NO:2) in the presence of ATP and GTP to elongate the trinucleotide primer (extended primer; SEQ ID NO:3)) and position the enzyme on the template (SEQ ID NO:2) such that guanosine is in the first templating position (underlined). In the presence of CTP and UTP, DV RdRp catalyzes RNA synthesis to the end of the template (SEQ ID NO:5). […] B. Increasing concentrations of ddhCTP (1, 10, 100 and 300 μM) inhibits DV RdRp-catalyzed RNA synthesis. Reaction products resolved by denaturing PAGE from DV RdRp-catalyzed nucleoside incorporation in the presence of increasing concentrations of either ddhCTP or 3′-dCTP. In the absence of ddhCTP and 3′-dCTP, DV RdRp efficiently catalyzes RNA synthesis to the end of the template creating a 20-nt RNA product (n+5, lanes 2 and 8).
Molecular target for ddhCTP: Viperin is induced by both DNA and RNA viruses (8,44-51). However, the presence of a 2′-OH on ddhCTP should almost certainly preclude efficient utilization by DNA polymerases, viral or cellular. (52) In contrast, 3′-deoxyribonucleotides are well known inhibitors of viral RNA-dependent RNA polymerases (RdRps)(53). Because Dengue virus (DV) and other members of the Flavivirus family are known to be sensitive to viperin, we used the DV RdRp as our model to examine the effect of ddhCTP on RdRp activity. First, it was asked if ddhCTP is a substrate for DV RdRp. To do so, a previously described primed-template assay was used. (54) A trinucleotide is used to prime RNA synthesis in the presence of two ^32P-labeled rNTPs, producing a 15-nt product that is referred to here as the extended primer. […] Addition of UTP to the CMP-incorporated RNA led to further extension to the end of template. […] A more stringent test of chain terminator effectiveness is whether it can directly compete with natural ribonucleotides. […] The reduced efficacy of ddhCTP must be caused by the double bond between the 3′ and 4′ positions, and the corresponding impact on the detailed ribose conformation, as this is the only difference between ddhCTP and 3′-dCTP. The phylogeny of viral RdRp genes classifies these enzymes into three supergroups (55), with Flaviviral RdRps belonging to supergroup II. To determine if the observations with DV RdRp extend to other supergroups, we evaluated a member of supergroup I. Specifically, the RdRp from human rhinovirus type C (HRV-C) was used, a member of the Picornavirus family. […] However, in the presence of other rNTPs, HRV-C RdRp was not inhibited by ddhCTP, even though it was inhibited by 3′-dCTP.
Addition of UTP to the CMP-incorporated RNA, as expected, led to further extension to the end of template.

Zika virus (ZIKV) RdRp = Zika virus (ZIKV) RdRp (Zika virus, UniProt Q32ZE1); experiment: ZIKV RdRp inhibition by ddhCTP; format: biochemical
poliovirus (PV) RdRp = poliovirus (PV) RdRp (Poliovirus type 1, UniProt P03300); format: biochemical
[2] = test system: RdRp from human rhinovirus type C (HRV-C); experiment: HRV-C RdRp incorporation and inhibition; format: biochemical; conditions: for utilization by HRV-C RdRp: direct-incorporation experiments; for inhibition of HRV-C RdRp: in the presence of other rNTPs
HCV RdRp = HCV RdRp (Hepatitis C virus genotype 1a, UniProt P27958); experiment: HCV RdRp inhibition by ddhCTP
Vero cells = experiment: Vero cell viability (ddhC cytotoxicity); format: cell-based; conditions: incubation with 1 mM ddhC
[3] = test system: ZIKV (MR766, PRVABC59, R103451); experiment: ZIKV replication and release from Vero cells
[4] = substrate: Nc1ccn([C@@H]2O[C@H](COP(=O)(O)OP(=O)(O)OP(=O)(O)O)[C@@H](O)[C@H]2O)c(=O)n1; experiment: purified protein, by the assay type; conditions: other: CTP as substrate of Rvip, 37.0 °C

Chain of Dengue virus (DV) RdRp (P29990 2492-3391 limits assumed): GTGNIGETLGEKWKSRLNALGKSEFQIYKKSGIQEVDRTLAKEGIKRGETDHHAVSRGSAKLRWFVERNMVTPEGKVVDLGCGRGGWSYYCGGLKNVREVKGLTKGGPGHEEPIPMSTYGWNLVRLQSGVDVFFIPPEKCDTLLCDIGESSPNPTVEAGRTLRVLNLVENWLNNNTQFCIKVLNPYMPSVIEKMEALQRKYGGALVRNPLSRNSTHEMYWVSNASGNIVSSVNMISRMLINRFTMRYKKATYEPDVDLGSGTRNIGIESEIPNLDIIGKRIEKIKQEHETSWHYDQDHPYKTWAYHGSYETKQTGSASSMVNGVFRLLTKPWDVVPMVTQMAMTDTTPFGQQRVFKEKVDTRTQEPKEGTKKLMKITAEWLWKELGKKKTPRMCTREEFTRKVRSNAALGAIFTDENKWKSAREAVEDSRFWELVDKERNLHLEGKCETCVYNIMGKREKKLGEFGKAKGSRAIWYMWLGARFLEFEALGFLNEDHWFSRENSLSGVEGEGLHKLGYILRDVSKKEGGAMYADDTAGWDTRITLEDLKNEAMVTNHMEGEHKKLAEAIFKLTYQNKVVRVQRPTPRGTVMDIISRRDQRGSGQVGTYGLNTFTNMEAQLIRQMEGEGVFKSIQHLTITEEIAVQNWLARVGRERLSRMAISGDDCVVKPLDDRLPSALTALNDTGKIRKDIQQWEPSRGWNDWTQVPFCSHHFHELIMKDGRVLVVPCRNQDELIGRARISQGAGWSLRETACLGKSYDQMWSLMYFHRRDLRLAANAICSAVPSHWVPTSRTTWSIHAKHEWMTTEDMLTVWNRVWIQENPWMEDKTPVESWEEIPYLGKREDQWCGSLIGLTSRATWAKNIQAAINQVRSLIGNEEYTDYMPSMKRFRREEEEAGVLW
Chain of poliovirus (PV) RdRp (P03300 1749-2209 limits assumed): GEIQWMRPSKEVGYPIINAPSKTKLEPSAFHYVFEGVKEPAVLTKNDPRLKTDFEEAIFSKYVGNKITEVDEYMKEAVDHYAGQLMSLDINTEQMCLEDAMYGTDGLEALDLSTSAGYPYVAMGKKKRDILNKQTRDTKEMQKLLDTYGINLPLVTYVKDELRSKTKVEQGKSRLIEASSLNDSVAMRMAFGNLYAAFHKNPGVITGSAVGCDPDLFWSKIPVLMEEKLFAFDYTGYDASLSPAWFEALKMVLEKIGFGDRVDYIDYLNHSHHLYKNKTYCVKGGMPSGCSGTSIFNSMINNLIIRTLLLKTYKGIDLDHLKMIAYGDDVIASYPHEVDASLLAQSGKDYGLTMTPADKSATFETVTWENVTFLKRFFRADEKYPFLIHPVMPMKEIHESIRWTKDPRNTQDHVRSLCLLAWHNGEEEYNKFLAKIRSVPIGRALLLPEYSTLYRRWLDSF
Chain of Zika virus (ZIKV) RdRp (Q32ZE1 2517-3419): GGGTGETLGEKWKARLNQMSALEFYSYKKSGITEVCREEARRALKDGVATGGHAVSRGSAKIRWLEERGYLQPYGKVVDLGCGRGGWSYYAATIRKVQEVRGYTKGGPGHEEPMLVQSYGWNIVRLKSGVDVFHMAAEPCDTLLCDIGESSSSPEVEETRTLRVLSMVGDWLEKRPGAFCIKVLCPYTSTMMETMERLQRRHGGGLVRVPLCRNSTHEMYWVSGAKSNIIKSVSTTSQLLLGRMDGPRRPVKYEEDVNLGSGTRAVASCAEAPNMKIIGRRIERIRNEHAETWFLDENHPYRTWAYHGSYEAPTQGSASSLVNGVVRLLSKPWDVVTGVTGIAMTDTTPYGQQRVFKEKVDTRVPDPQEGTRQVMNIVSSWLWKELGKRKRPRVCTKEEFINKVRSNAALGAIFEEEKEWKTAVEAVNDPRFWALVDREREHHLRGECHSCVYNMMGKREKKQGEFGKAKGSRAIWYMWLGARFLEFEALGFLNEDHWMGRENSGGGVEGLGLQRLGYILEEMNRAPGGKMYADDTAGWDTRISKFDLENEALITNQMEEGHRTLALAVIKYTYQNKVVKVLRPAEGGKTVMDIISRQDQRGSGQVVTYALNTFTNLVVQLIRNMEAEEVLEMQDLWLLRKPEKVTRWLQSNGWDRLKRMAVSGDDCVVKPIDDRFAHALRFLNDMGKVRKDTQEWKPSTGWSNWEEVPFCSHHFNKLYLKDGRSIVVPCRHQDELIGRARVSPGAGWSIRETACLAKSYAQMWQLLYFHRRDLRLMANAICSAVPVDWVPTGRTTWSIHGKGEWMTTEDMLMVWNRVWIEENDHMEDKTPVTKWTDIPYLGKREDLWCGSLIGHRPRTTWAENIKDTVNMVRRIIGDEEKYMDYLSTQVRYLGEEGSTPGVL
Chain of HCV RdRp (P27958 2421-3011): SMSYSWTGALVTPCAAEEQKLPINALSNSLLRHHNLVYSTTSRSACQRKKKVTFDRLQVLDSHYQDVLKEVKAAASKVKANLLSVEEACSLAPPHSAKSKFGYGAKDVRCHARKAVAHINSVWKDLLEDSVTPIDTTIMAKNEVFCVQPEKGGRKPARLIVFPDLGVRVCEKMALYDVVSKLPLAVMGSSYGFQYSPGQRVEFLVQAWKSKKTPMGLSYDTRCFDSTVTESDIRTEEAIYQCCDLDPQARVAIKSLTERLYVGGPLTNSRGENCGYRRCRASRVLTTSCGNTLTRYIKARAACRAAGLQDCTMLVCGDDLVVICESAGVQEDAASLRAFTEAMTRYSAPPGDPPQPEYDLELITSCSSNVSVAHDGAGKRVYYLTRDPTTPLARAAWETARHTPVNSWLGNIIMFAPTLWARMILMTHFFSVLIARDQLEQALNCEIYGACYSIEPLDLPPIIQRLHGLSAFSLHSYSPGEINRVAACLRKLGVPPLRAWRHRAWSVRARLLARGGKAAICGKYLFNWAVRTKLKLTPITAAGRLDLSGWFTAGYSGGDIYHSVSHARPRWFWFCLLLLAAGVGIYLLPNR

Molecule | incorporation by DV RdRp on addition to the extended primer (Dengue virus (DV) RdRp) | inhibition of DV RdRp-catalyzed production of full-length RNA (Dengue virus (DV) RdRp) | chain termination of DV RdRp-catalyzed RNA synthesis (Dengue virus (DV) RdRp) | inhibition of PV RdRp (poliovirus (PV) RdRp) | utilization by HRV-C RdRp [2] | inhibition of HRV-C RdRp [2] | also measured
Nc1ccn([C@@H]2O[C@H](COP(=O)(O)OP(=O)(O)OP(=O)(O)O)[C@@H](O)[C@H]2O)c(=O)n1 [CTP, cytidine triphosphate] | – | – | – | – | – | – | activation of 5′dA production relative to protein alone [1]: 30 fold
Nc1ccn([C@@H]2OC(COP(=O)(O)OP(=O)(O)OP(=O)(O)O)=C[C@@H]2O)c(=O)n1 (stereo in doubt) [ddhCTP, 3′-deoxy-3′,4′-didehydro-cytidine triphosphate] | led to incorporation | inhibits; also recorded: inhibited production of full-length RNA | terminate RNA synthesis | poorly inhibited | utilization | not inhibited; also recorded: poorly inhibited | inhibition by ddhCTP utilization and chain termination (Zika virus (ZIKV) RdRp): susceptible to inhibition; inhibition by ddhCTP utilization and chain termination (HCV RdRp): susceptible to inhibition
Nc1ccn([C@@H]2O[C@H](COP(=O)(O)OP(=O)(O)OP(=O)(O)O)C[C@H]2O)c(=O)n1 [3′-dCTP, reference compound] | led to incorporation | inhibited production of full-length RNA | terminate RNA synthesis | inhibited | utilization | inhibited | efficacy of inhibition of full-length RNA, 3′-dCTP compared with ddhCTP (Dengue virus (DV) RdRp; compare lane 10 to lane 4 in FIG. 6B): greater efficacy than ddhCTP
Nc1ccn([C@@H]2OC(CO)=C[C@H]2O)c(=O)n1 [ddhC, 3′-deoxy-3′,4′-didehydro-cytidine] | – | – | – | – | – | – | Vero cell viability (Vero cells): did not alter Vero cell viability; reduction in virus titer ([3]; ZIKV MR766, MOI of 0.1, all time points, Vero cells): 50-200 fold; reduction in virus titer ([3]; ZIKV MR766, MOI of 1.0, Vero cells): 5-50 fold; sensitivity to ddhC treatment ([3]; ZIKV PRVABC59 (Puerto Rico), Vero cells): analogous sensitivities; sensitivity to ddhC treatment ([3]; ZIKV R103451 (Honduras), Vero cells): analogous sensitivities
Rattus norvegicus (residues 51-361) viperin (Rvip) (Rattus norvegicus) (protein) GEPKETQETHEDPGSAQPTTPVSVNYHFTRQCNYKCGFCFHTAKTSFVLPLEEAKRGLLLLKQAGMEKINFSGGEPFLQDRGEYLGKLVRFCKEELALPSVSIVSNGSLIRERWFKDYGDYLDILAISCDSFDEQVNVLIGRGQGKKNHVENLQKLRKWCRDYKVAFKINSVINRFNVDEDMNEHIKALSPVRWKVFQCLLIEGENSGEDALREAERFLISNEEFEAFLQRHKDVSCLVPESNQKMKDSYLILDEYMRFLNCTGGRKDPSRSILDVGVEEAIKFSGFDEKMFLKRGGKYVWSKADLKLDW | – | – | – | – | – | – | Km [4]: 183 ± 28 µM; kcat ([4]; b22 prints minutes-1): 0.185 ± 0.007 min⁻¹
